These results are taken from patent US9233983B2, “Substituted hetero-bicyclic compounds, compositions and medicinal applications thereof” (ADVINUS THERAPEUTICS LIMITED, priority 2012, dated 2016).

Experiment [1] has as its target human Bruton's Tyrosine Kinase (Btk) (Homo sapiens (Human), UniProt Q06187). The experiment in a line: Recombinant Human Bruton's Tyrosine Kinase (Btk) Inhibition Assay (HTRF KinEASE-TK). As to conditions: 20 ng/ml rhBtk, 77 μM ATP (KM), 1 μM TK-Biotin substrate, 90 min; read-out: hBTK IC50. The class given is biochemical. (In general: Time-resolved FRET reads energy transfer from a long-lived donor to a nearby acceptor.)

For experiment [2], the system named is mouse splenocytes. The experiment in a line: Inhibition of B Cell Activation as Measured by CD69 Expression in Mouse Splenocytes. The class given is cell-based. The conditions noted are these: Splenocyte; C57/BL6 splenocytes, 3 ug/mL goat anti-mouse IgM, 18-20 hrs, CD69+ve cells within CD19; read-out: Mouse spleenocyte IC50. The procedure, abridged:
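Total mouse splenocytes pre-incubated with compounds (half-log dilutions; DMSO 200× stocks from 2 mM) 30 min at 37 °C, then stimulated with 3 ug/mL anti-mouse IgM for 18-20 hrs. CD69+ cells within CD19+ B cells quantified by flow cytometry; IC50 from variable-slope sigmoid dose-response fit.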

The structures appear in SMILES notation.

Chain of human Bruton's Tyrosine Kinase (Btk) (Q06187 whole entry): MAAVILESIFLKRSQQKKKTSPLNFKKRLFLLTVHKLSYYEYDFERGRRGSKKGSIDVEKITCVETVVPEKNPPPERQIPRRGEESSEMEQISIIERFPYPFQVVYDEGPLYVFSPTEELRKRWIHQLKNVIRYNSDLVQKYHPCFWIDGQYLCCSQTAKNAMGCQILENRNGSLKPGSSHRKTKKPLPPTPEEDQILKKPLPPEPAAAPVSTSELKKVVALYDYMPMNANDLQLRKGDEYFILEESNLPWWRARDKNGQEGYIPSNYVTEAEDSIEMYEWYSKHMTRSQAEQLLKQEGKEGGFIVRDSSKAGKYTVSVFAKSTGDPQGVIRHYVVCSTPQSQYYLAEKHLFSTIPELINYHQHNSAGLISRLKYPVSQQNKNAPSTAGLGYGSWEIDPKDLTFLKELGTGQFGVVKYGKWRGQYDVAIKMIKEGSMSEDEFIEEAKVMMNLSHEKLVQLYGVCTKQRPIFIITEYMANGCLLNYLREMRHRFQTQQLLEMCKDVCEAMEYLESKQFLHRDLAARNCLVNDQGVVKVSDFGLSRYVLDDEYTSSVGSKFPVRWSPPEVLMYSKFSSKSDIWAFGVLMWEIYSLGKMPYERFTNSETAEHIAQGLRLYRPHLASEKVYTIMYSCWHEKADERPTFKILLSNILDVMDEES

For `NC(=O)c1ccc(-c2cc3c(-c4cccc(N5CCOc6cc(C7CC7)ccc6C5=O)c4CO)ccnc3[nH]2)nc1` [Example K-22, 6-[4-[3-(8-cyclopropyl-5-oxo-2,3-dihydro-1,4-benzoxazepin-4-yl)-2-(hydroxymethyl)phenyl]-1H-pyrrolo[2,3-b]pyridin-2-yl]pyridine-3-carboxamide], the IC50 (as a rule, the concentration that gives 50% inhibition) is 2 nM in experiment [1] and 8 nM in experiment [2].
Taken in the same sequence, the figures for `O=C1c2c(F)cc(C3CC3)cc2OCCN1c1cccc(-c2ccnc3[nH]c(C4=CCN(C5CCOCC5)CC4)cc23)c1CO` [Example P-26, 8-cyclopropyl-6-fluoro-4-[2-(hydroxymethyl)-3-[2-(1-tetrahydropyran-4-yl-3,6-dihydro-2H-pyridin-4-yl)-1H-pyrrolo[2,3-b]pyridin-4-yl]phenyl]-2,3-dihydro-1,4-benzoxazepin-5-one] were 3.4 nM and 162 nM.
Taken in the same sequence, the figures for `CN1CC(Oc2ccc(-c3cc4c(-c5cccc(N6CCOc7cc(C8CC8)ccc7C6=O)c5CO)ncnc4[nH]3)cc2)C1` [Example G-2, 8-cyclopropyl-4-[2-(hydroxymethyl)-3-[6-[4-(1-methylazetidin-3-yl)oxyphenyl]-7H-pyrrolo[2,3-d]pyrimidin-4-yl]phenyl]-2,3-dihydro-1,4-benzoxazepin-5-one] were 5 nM and 54 nM.
Taken in the same sequence, the figures for `CN1CCN(Cc2ccc(-c3cc4c(-c5cccc(N6CCOc7cc(C8CC8)cc(F)c7C6=O)c5CO)ccnc4[nH]3)nc2)CC1` [Example I-2, 8-cyclopropyl-6-fluoro-4-[2-(hydroxymethyl)-3-[2-[5-[(4-methylpiperazin-1-yl)methyl]-2-pyridyl]-1H-pyrrolo[2,3-b]pyridin-4-yl]phenyl]-2,3-dihydro-1,4-benzoxazepin-5-one] were 1 nM and 5 nM.
Regarding `Cc1c(-c2ncnc3[nH]c(-c4ccc(CN5CCNCC5)cc4)cc23)cccc1N1CCc2cc(C3CC3)ccc2C1=O` [Example A-2, 6-cyclopropyl-2-[2-methyl-3-[6-[4-(piperazin-1-ylmethyl)phenyl]-7H-pyrrolo[2,3-d]pyrimidin-4-yl]phenyl]-3,4-dihydroisoquinolin-1-one], the IC50 in experiment [1] came out at 7 nM; in experiment [2] it was 165 nM.
`CCN1CCN(Cc2ccc(-c3cc4c(-c5cccc(N6CCOc7cc(C8CC8)ccc7C6=O)c5CO)ncnc4[nH]3)cc2)CC1` [Example B-7, 8-cyclopropyl-4-[3-[6-[4-[(4-ethylpiperazin-1-yl)methyl]phenyl]-7H-pyrrolo[2,3-d]pyrimidin-4-yl]-2-(hydroxymethyl)phenyl]-2,3-dihydro-1,4-benzoxazepin-5-one]: the values for the IC50 in experiment [1] and in experiment [2] were 6 nM and 52 nM, respectively.
Taken in the same sequence, the figures for `CN1CCC(n2cc(-c3cc4c(-c5cccc(N6CCOc7cc(C8CC8)ccc7C6=O)c5CO)ccnc4[nH]3)cn2)CC1` [Example D-5, 8-cyclopropyl-4-[2-(hydroxymethyl)-3-[2-[1-(1-methyl-4-piperidyl)pyrazol-4-yl]-1H-pyrrolo[2,3-b]pyridin-4-yl]phenyl]-2,3-dihydro-1,4-benzoxazepin-5-one] were 5 nM and 38 nM.
In the case of `CCN1CCN(Cc2ccc(-c3cc4c(-c5cccc(N6CCOc7cc(C8CC8)ccc7C6=O)c5CO)ccnc4[nH]3)nc2)CC1` [Example I-4, 8-cyclopropyl-4-[3-[2-[5-[(4-ethylpiperazin-1-yl)methyl]-2-pyridyl]-1H-pyrrolo[2,3-b]pyridin-4-yl]-2-(hydroxymethyl)phenyl]-2,3-dihydro-1,4-benzoxazepin-5-one], the half-maximal inhibitory concentration (IC50) came to 2 nM in experiment [1] and 23 nM in experiment [2].
Consider `O=C1c2c(F)cc(C3CC3)cc2OCCN1c1cccc(-c2ccnc3[nH]c(C4=CCN(C5CCOC5)CC4)cc23)c1CO` (stereo not drawn) [Example P-21, 8-cyclopropyl-6-fluoro-4-[2-(hydroxymethyl)-3-[2-(1-tetrahydrofuran-3-yl-3,6-dihydro-2H-pyridin-4-yl)-1H-pyrrolo[2,3-b]pyridin-4-yl]phenyl]-2,3-dihydro-1,4-benzoxazepin-5-one], for which the results for the IC50 in experiment [1] and in experiment [2] were 4 nM and 59 nM, respectively.
